The test system of one series is MRC5. As to the kind of experiment: Cytotoxicity against human MRC5 cells assessed as reduction in cell viability incubated for 3 days by resazurin dye based fluorescence assay. The conditions noted are these: MRC5, 72 h.
Series [1] concerns Trypanosoma brucei rhodesiense. Description: Antitrypanosomal activity against Trypanosoma brucei rhodesiense assessed as reduction in parasite growth incubated for 3 days by resazurin dye based fluorescence assay. The following applies: 72 h. It is filed as functional, organism-based. (Resazurin is reduced to fluorescent resorufin, in cell work by metabolically active cells.)

Series [2] is described as follows: Selectivity index, ratio of EC50 for cytotoxicity against human MRC5 cells to EC50 for antitrypanosomal activity against Trypanosoma brucei brucei. The format is toxicity, cell-based. The following applies: read-out: Ratio EC50.
Series [3] relates to Trypanosoma brucei brucei. As to the kind of experiment: Antitrypanosomal activity against Trypanosoma brucei brucei assessed as reduction in parasite growth incubated for 3 days by resazurin dye based fluorescence assay. It is filed as functional, organism-based. The following applies: 72 h.
A short description of series [4]: Selectivity index, ratio of EC50 for cytotoxicity against human MRC5 cells to EC50 for antitrypanosomal activity against Trypanosoma brucei rhodesiense. The format is toxicity, cell-based. The following applies: read-out: Ratio EC50.
Series [5] is described as follows: Resistance factor, ratio of EC50 for antitrypanosomal activity against drug resistant Trypanosoma brucei ISMR1 to antitrypanosomal activity against Trypanosoma brucei brucei Lister 427 blood stream form. The format is functional.
Series [6] is described as follows: Resistance factor, ratio of EC50 for antitrypanosomal activity against drug resistant Trypanosoma brucei B48 to antitrypanosomal activity against Trypanosoma brucei brucei Lister 427 blood stream form. The format is functional.
Series [7] can be described thus: Resistance factor, ratio of EC50 for antitrypanosomal activity against drug resistant Trypanosoma brucei harboring TbAT1 deficient to antitrypanosomal activity against Trypanosoma brucei brucei Lister 427 blood stream form. The format is functional.

Consider `CCCCCOc1ncnc2c1c(Cl)cn2[C@@H]1O[C@H](CO)[C@@H](O)[C@H]1O`, for which the EC50 – broadly, the midpoint of the concentration-response curve – in the series with MRC5 was found to be 0.1 µM; in series [1] it was 0.032 µM; in series [3] it was 0.088 µM. Also, the results for the selectivity ratio in series [2] and in series [4] were 1.1 and 3.2, respectively.
On the same counts, the results for `O=c1[nH]cnc2c1ccn2[C@@H]1O[C@H](CO)[C@@H](O)[C@H]1O` [IMMUNICILLIN H] are 31.3 µM, 19.1 µM, 4.2 µM, 7.4 and 1.6.
Regarding `COc1ncnc2c1ccn2[C@@H]1O[C@H](CO)C[C@H]1O`, the concentration giving a half-maximal response (EC50) (with MRC5; in series [1]; in series [3]) was over 64 µM each time.
`Nc1ncc2ccn([C@@H]3O[C@H](CO)[C@@H](O)[C@H]3O)c2n1`: the EC50 (in the series on MRC5; in series [1]; in series [3]) was over 64 µM throughout.
Consider `COc1ncnc2c1c(I)cn2[C@@H]1O[C@H](CO)[C@@H](O)[C@H]1O`, for which the EC50 in the series on MRC5 came to 38.4 µM; in series [1] it was 0.053 µM; in series [3] it was 0.22 µM. Besides, the selectivity ratio in series [2] was found to be 168; in series [4] it was 708.
On to `COCCOc1ncnc2c1c(Cl)cn2[C@@H]1O[C@H](CO)[C@@H](O)[C@H]1O`, for which the concentration for a half-maximal effect (EC50) in the series on MRC5 was found to be 4.13 µM; in series [1], 0.22 µM; in series [3], 0.17 µM. For the same molecule, the figures for the selectivity ratio in series [2] and in series [4] were 25 and 18.8, respectively.
On the same counts, the results for `COc1nc(N)nc2c1c(Br)cn2[C@@H]1O[C@H](CO)[C@@H](O)[C@H]1O` are 3.24 µM, 0.077 µM, 0.13 µM, 24 and 42.
In the case of `COc1ncnc2c1c(-c1ccc(Cl)cc1)cn2[C@@H]1O[C@H](CO)[C@@H](O)[C@H]1O`, the values for the EC50 (in the series on MRC5; in series [1]; in series [3]) were 61.1 µM, 22.3 µM and over 64 µM, respectively. For the same molecule, the selectivity ratio in series [4] came out at 2.7.
For the molecule `O=c1[nH]cnc2c1c(-c1ccccc1)cn2[C@@H]1O[C@H](CO)[C@@H](O)[C@H]1O`, the values for the concentration for a half-maximal effect (EC50) (with MRC5; in series [1]; in series [3]) were over 64 µM, 9.4 µM and 32.2 µM, respectively. Besides, the figures for the selectivity ratio in series [2] and in series [4] were over 2 and over 6.8, respectively.
For `Cc1ccc(C(=O)Nc2ccc(S(=O)(=O)O)c3cc(S(=O)(=O)O)cc(S(=O)(=O)O)c23)cc1NC(=O)c1cccc(NC(=O)Nc2cccc(C(=O)Nc3cc(C(=O)Nc4ccc(S(=O)(=O)O)c5cc(S(=O)(=O)O)cc(S(=O)(=O)O)c45)ccc3C)c2)c1` [SURAMIN], the EC50 worked out at 0.033 µM in series [1] and 0.028 µM in series [3].
`CC(C)CCOc1ncnc2c1c(Cl)cn2[C@@H]1O[C@H](CO)[C@@H](O)[C@H]1O`: the figures for the EC50 (with MRC5; in series [1]; in series [3]) were over 64 µM, 0.029 µM and 0.058 µM, respectively. Also, the values for the selectivity ratio in series [2] and in series [4] were over 1100 and over 2200, respectively.
Consider `Nc1nc2c(c(Br)cn2[C@@H]2O[C@H](CO)[C@@H](O)[C@H]2O)c(=O)[nH]1`, for which the figures for the EC50 (in the series on MRC5; in series [1]; in series [3]) were over 64 µM, 0.49 µM and 2.01 µM, respectively. Also, the figures for the selectivity ratio in series [2] and in series [4] were over 31 and over 130, respectively.
On the same counts, the results for `O=c1[nH]cnc2c1c(F)cn2[C@@H]1O[C@H](CO)[C@@H](O)[C@H]1O` are 2.03 µM, 1.06 µM, 0.1 µM, 21 and 1.9.
For `OC[C@H]1O[C@@H](n2cc(Cl)c3c(OCCc4ccccc4)ncnc32)[C@H](O)[C@@H]1O`, the EC50 in the series on MRC5 stood at 0.31 µM; in series [1], 0.03 µM; in series [3] it was 0.095 µM. For the same molecule, the selectivity ratio in series [2] was 3.3; in series [4] it was 10.3.
As to `CC(C)COc1ncnc2c1c(Cl)cn2[C@@H]1O[C@H](CO)[C@@H](O)[C@H]1O`, the results for the EC50 (in the series on MRC5; in series [1]; in series [3]) were 49.5 µM, 0.03 µM and 0.071 µM, respectively. In addition, the selectivity ratio in series [2] stood at 694; in series [4] it was 1670.
`CC[n+]1c(-c2ccccc2)c2cc(N/N=N/c3cccc(C(=N)N)c3)ccc2c2ccc(N)cc21`: the Ratio EC50 is 4.8 in series [5], 0.85 in series [6] and 1.2 in series [7].
Turning to `O=c1[nH]cnc2c1ccn2[C@@H]1O[C@H](CO)C[C@H]1O`, the EC50 in the series with MRC5 was over 64 µM; in series [1], 2.9 µM; in series [3], 29.6 µM. The selectivity ratio was over 2 in series [2] and over 22 in series [4].
On the same counts, the results for `OC[C@H]1O[C@@H](n2cc(Cl)c3c(OC4CCCC4)ncnc32)[C@H](O)[C@@H]1O` are 38.1 µM, 0.12 µM, 0.2 µM, 191 and 326.
Take `N=C(N)c1ccc(/N=N/Nc2ccc(C(=N)N)cc2)cc1`: the Ratio EC50 in series [5] was 6.9; in series [6], 16.9; in series [7] it was 10.6.
Turning to `COc1ncnc2c1c(Br)cn2[C@@H]1O[C@H](CO)C[C@H]1O`, the EC50 in the series on MRC5 stood at 2.7 µM; in series [1] it was 3.7 µM; in series [3], 2.6 µM. Moreover, the selectivity ratio in series [2] stood at 1; in series [4] it was 0.7.
On the same counts, the results for `Nc1nc(Cl)c2c(Br)cn([C@@H]3O[C@H](CO)[C@@H](O)[C@H]3O)c2n1` are 40.2 µM, 0.047 µM, 0.13 µM, 316 and 847.
For `Nc1nc(O)c2ccn([C@@H]3O[C@H](CO)C[C@H]3O)c2n1`, the EC50 (in the series with MRC5; in series [1]; in series [3]) was over 64 µM in each case.
For the molecule `O=c1[nH]cnc2c1c(I)cn2[C@@H]1O[C@H](CO)[C@@H](O)[C@H]1O`, the results for the EC50 (with MRC5; in series [1]; in series [3]) were over 64 µM, 23.9 µM and 57.3 µM, respectively. Further, the selectivity ratio is over 1.1 in series [2] and over 2.7 in series [4].
On the same counts, the results for `CCCCOc1ncnc2c1c(Cl)cn2[C@@H]1O[C@H](CO)[C@@H](O)[C@H]1O` are 1.32 µM, 0.036 µM, 0.069 µM, 19 and 37.
Taken in the same sequence, the figures for `O=c1[nH]cnc2c1c(Br)cn2[C@@H]1O[C@H](CO)C[C@H]1O` were over 64 µM, 23 µM, 8.1 µM, over 7 and over 28.
With `OC[C@H]1O[C@@H](n2cc(C(F)(F)F)c3c(O)ncnc32)[C@H](O)[C@@H]1O`, the EC50 is 3.28 µM in the series with MRC5, 10.9 µM in series [1] and over 64 µM in series [3]. Further, the selectivity ratio was 0.1 in series [2] and 0.3 in series [4].
On the same counts, the results for `OC[C@H]1O[C@@H](n2cc(Cl)c3c(OCCOc4ccccc4)ncnc32)[C@H](O)[C@@H]1O` are 43.2 µM, 0.16 µM, 0.13 µM, 329 and 263.
On the same counts, the results for `CCCOc1ncnc2c1c(Cl)cn2[C@@H]1O[C@H](CO)[C@@H](O)[C@H]1O` are 2.81 µM, 0.076 µM, 0.081 µM, 34 and 37.
On the same counts, the results for `OC[C@H]1O[C@@H](n2cc(Cl)c3c(OC4CCCCC4)ncnc32)[C@H](O)[C@@H]1O` are over 64 µM, 0.38 µM, 0.4 µM, over 161 and over 168.
In the case of `Nc1nc(Cl)c2ccn([C@@H]3O[C@H](CO)[C@@H](O)[C@H]3O)c2n1`, the results for the EC50 (in the series with MRC5; in series [1]; in series [3]) were over 64 µM, 0.18 µM and 0.49 µM, respectively. For the same molecule, the selectivity ratio in series [2] is over 131; in series [4] it was over 347.
As for `O=c1[nH]cnc2c1ncn2[C@@H]1O[C@H](CO)C[C@H]1O`, the EC50 with MRC5 is over 64 µM; in series [1], 6.7 µM; in series [3], 1.1 µM.
Turning to `O=c1[nH]cnc2c1c(Cl)cn2[C@@H]1O[C@H](CO)[C@@H](O)[C@H]1O`, the EC50 in the series on MRC5 is over 64 µM; in series [1] it was 25.1 µM; in series [3] it was 10.7 µM. For the same molecule, the selectivity ratio in series [2] was over 6; in series [4], over 2.5.
Consider `COc1ncnc2c1c(-c1ccccc1)cn2[C@@H]1O[C@H](CO)[C@@H](O)[C@H]1O`, for which the EC50 (with MRC5; in series [1]; in series [3]) was over 64 µM each time.
As for `Cc1nc2c(ccn2[C@@H]2O[C@H](CO)[C@@H](O)[C@H]2O)c(=O)[nH]1`, the EC50 is over 64 µM in the series on MRC5, 4.7 µM in series [1] and over 64 µM in series [3]. In series [4], the selectivity ratio is over 13.
For `O=c1[nH]cnc2c1c(Br)cn2[C@@H]1O[C@H](CO)[C@@H](O)[C@H]1O`, the EC50 in the series with MRC5 is over 64 µM; in series [1], 29.2 µM; in series [3], 52.4 µM. Besides, the results for the selectivity ratio in series [2] and in series [4] were over 1.2 and 22, respectively.
For the molecule `Nc1nc2c(ccn2[C@@H]2O[C@H](CO)[C@@H](O)[C@H]2O)c(=O)[nH]1`, the EC50 was over 64 µM in the series on MRC5, 12.9 µM in series [1] and over 64 µM in series [3]. Moreover, the selectivity ratio in series [4] is over 5.

Source of the values: ChEMBL document CHEMBL4680158, “C6-O-alkylated 7-deazainosine nucleoside analogues: Discovery of potent and selective anti-sleeping sickness agents” (Eur J Med Chem, 2020).
